Source: PubChem BioAssay (NCI)
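In this assay, cells in 96-well plates receive the compound at five concentrations for 48 hours. Endpoints are linearly interpolated between the surrounding concentrations. At the TGI there is no net growth.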

What was measured:
Test in all cases: DTP human tumour cell line panel, 48 h
M14 melanoma = tested on: M14 melanoma
OVCAR-3 ovarian = tested on: OVCAR-3 ovarian
NCI-H226 lung = tested on: NCI-H226 lung
NCI-H23 lung = tested on: NCI-H23 lung
ACHN renal = tested on: ACHN renal
CCRF-CEM leukemia = tested on: CCRF-CEM leukemia
SK-MEL-2 melanoma = tested on: SK-MEL-2 melanoma
NCI-H460 lung = tested on: NCI-H460 lung
SK-MEL-5 melanoma = tested on: SK-MEL-5 melanoma
HL-60(TB) leukemia = tested on: HL-60(TB) leukemia
SW-620 colon = tested on: SW-620 colon
OVCAR-4 ovarian = tested on: OVCAR-4 ovarian
SK-OV-3 ovarian = tested on: SK-OV-3 ovarian
DMS 114 small cell lung = tested on: DMS 114 small cell lung
CAKI-1 renal = tested on: CAKI-1 renal
DLD-1 colon = tested on: DLD-1 colon
IGROV1 ovarian = tested on: IGROV1 ovarian
HCC-2998 colon = tested on: HCC-2998 colon
HOP-92 NSCLC = tested on: HOP-92 NSCLC
SNB-78 CNS = tested on: SNB-78 CNS
SK-MEL-28 melanoma = tested on: SK-MEL-28 melanoma
SNB-19 CNS = tested on: SNB-19 CNS
SNB-75 CNS = tested on: SNB-75 CNS
K-562 leukemia = tested on: K-562 leukemia
HT29 colon = tested on: HT29 colon
M19-MEL melanoma = tested on: M19-MEL melanoma
U251 CNS = tested on: U251 CNS
EKVX NSCLC = tested on: EKVX NSCLC
LOX IMVI melanoma = tested on: LOX IMVI melanoma
DMS 273 small cell lung = tested on: DMS 273 small cell lung
A549 NSCLC = tested on: A549 NSCLC
OVCAR-5 ovarian = tested on: OVCAR-5 ovarian
786-0 renal = tested on: 786-0 renal
MOLT-4 leukemia = tested on: MOLT-4 leukemia
TK-10 renal = tested on: TK-10 renal
MALME-3M melanoma = tested on: MALME-3M melanoma
UACC-257 melanoma = tested on: UACC-257 melanoma
HOP-62 NSCLC = tested on: HOP-62 NSCLC
SF-268 CNS = tested on: SF-268 CNS
HCT-116 colon = tested on: HCT-116 colon
SF-539 CNS = tested on: SF-539 CNS
A498 renal = tested on: A498 renal
COLO 205 colon = tested on: COLO 205 colon
HCT-15 colon = tested on: HCT-15 colon
HOP-18 NSCLC = tested on: HOP-18 NSCLC
UO-31 renal = tested on: UO-31 renal
RXF 393 renal = tested on: RXF 393 renal
OVCAR-8 ovarian = tested on: OVCAR-8 ovarian
UACC-62 melanoma = tested on: UACC-62 melanoma
KM12 colon = tested on: KM12 colon
SN12C renal = tested on: SN12C renal
SF-295 CNS = tested on: SF-295 CNS
HS 578T breast = tested on: HS 578T breast
RPMI-8226 leukemia = tested on: RPMI-8226 leukemia
NCI/ADR-RES ovarian = tested on: NCI/ADR-RES ovarian
MDA-MB-231 breast = tested on: MDA-MB-231 breast
BT-549 breast = tested on: BT-549 breast
MDA-MB-435 = tested on: MDA-MB-435
NCI-H522 lung = tested on: NCI-H522 lung
DU-145 prostate = tested on: DU-145 prostate
SR leukemia = tested on: SR leukemia
MDA-N = tested on: MDA-N
T-47D breast = tested on: T-47D breast
PC-3 prostate = tested on: PC-3 prostate
MCF7 breast = tested on: MCF7 breast

Cc1ccc(NS(=O)(=O)c2cc(C(C)(C)C)ccc2OCCOCCOCCOc2ccc(C(C)(C)C)cc2S(=O)(=O)Nc2ccc(C)cc2)cc1
TGI (M14 melanoma): > 100 µM | TGI (OVCAR-3 ovarian): > 100 µM | TGI (NCI-H226 lung): > 100 µM | TGI (NCI-H23 lung): > 100 µM | TGI (ACHN renal): > 100 µM | TGI (CCRF-CEM leukemia): > 100 µM | TGI (SK-MEL-2 melanoma): > 100 µM | TGI (NCI-H460 lung): > 100 µM | TGI (SK-MEL-5 melanoma): > 100 µM | TGI (HL-60(TB) leukemia): > 100 µM | TGI (SW-620 colon): > 100 µM | TGI (OVCAR-4 ovarian): > 100 µM | TGI (SK-OV-3 ovarian): > 100 µM | TGI (DMS 114 small cell lung): > 100 µM | TGI (CAKI-1 renal): > 100 µM | TGI (DLD-1 colon): > 100 µM | TGI (IGROV1 ovarian): > 100 µM | TGI (HCC-2998 colon): > 100 µM | TGI (HOP-92 NSCLC): > 100 µM | TGI (SNB-78 CNS): > 100 µM | TGI (SK-MEL-28 melanoma): > 100 µM | TGI (SNB-19 CNS): > 100 µM | TGI (SNB-75 CNS): > 100 µM | TGI (K-562 leukemia): > 100 µM | TGI (HT29 colon): > 100 µM | TGI (M19-MEL melanoma): > 100 µM | TGI (U251 CNS): > 100 µM | TGI (EKVX NSCLC): > 100 µM | TGI (LOX IMVI melanoma): > 100 µM | TGI (DMS 273 small cell lung): > 100 µM | TGI (A549 NSCLC): > 100 µM | TGI (OVCAR-5 ovarian): > 100 µM | TGI (786-0 renal): > 100 µM | TGI (MOLT-4 leukemia): > 100 µM | TGI (TK-10 renal): > 100 µM | TGI (MALME-3M melanoma): > 100 µM | TGI (UACC-257 melanoma): > 100 µM | TGI (HOP-62 NSCLC): > 100 µM | TGI (SF-268 CNS): > 100 µM | TGI (HCT-116 colon): > 100 µM | TGI (SF-539 CNS): > 100 µM | TGI (A498 renal): > 100 µM | TGI (COLO 205 colon): > 100 µM | TGI (HCT-15 colon): > 100 µM | TGI (HOP-18 NSCLC): > 100 µM | TGI (UO-31 renal): > 100 µM | TGI (RXF 393 renal): > 100 µM | TGI (OVCAR-8 ovarian): > 100 µM | TGI (UACC-62 melanoma): > 100 µM | TGI (KM12 colon): > 100 µM | TGI (SN12C renal): > 100 µM | TGI (SF-295 CNS): > 100 µM

Clc1ccc(OCc2nnc3sc(-c4ccc(-c5ccc(Cl)cc5Cl)o4)nn23)c(Cl)c1
TGI (HS 578T breast): 54.5 µM | TGI (M14 melanoma): 76.5 µM | TGI (OVCAR-3 ovarian): 34 µM | TGI (NCI-H226 lung): 41.5 µM | TGI (NCI-H23 lung): 54 µM | TGI (RPMI-8226 leukemia): 57.2 µM | TGI (NCI/ADR-RES ovarian): 45.1 µM | TGI (ACHN renal): 45.8 µM | TGI (MDA-MB-231 breast): 33.3 µM | TGI (CCRF-CEM leukemia): 68.2 µM | TGI (BT-549 breast): 50.6 µM | TGI (SK-MEL-2 melanoma): 32.1 µM | TGI (NCI-H460 lung): 55.2 µM | TGI (SK-MEL-5 melanoma): 44.4 µM | TGI (HL-60(TB) leukemia): 96.6 µM | TGI (SW-620 colon): > 100 µM | TGI (OVCAR-4 ovarian): > 100 µM | TGI (SK-OV-3 ovarian): 48.3 µM | TGI (CAKI-1 renal): 86.2 µM | TGI (IGROV1 ovarian): 35.2 µM | TGI (HCC-2998 colon): 36.6 µM | TGI (HOP-92 NSCLC): 37.4 µM | TGI (MDA-MB-435): > 100 µM | TGI (SK-MEL-28 melanoma): 60.9 µM | TGI (SNB-19 CNS): 56.6 µM | TGI (SNB-75 CNS): 34.1 µM | TGI (K-562 leukemia): 62.7 µM | TGI (HT29 colon): 51.1 µM | TGI (NCI-H522 lung): 34.6 µM | TGI (U251 CNS): 37.5 µM | TGI (DU-145 prostate): 66.8 µM | TGI (EKVX NSCLC): 34.5 µM | TGI (LOX IMVI melanoma): 36.2 µM | TGI (SR leukemia): 25.5 µM | TGI (A549 NSCLC): 46.8 µM | TGI (OVCAR-5 ovarian): 49.1 µM | TGI (786-0 renal): 26.1 µM | TGI (MOLT-4 leukemia): 41.3 µM | TGI (TK-10 renal): 39.8 µM | TGI (MALME-3M melanoma): 39.4 µM | TGI (UACC-257 melanoma): 38.2 µM | TGI (HOP-62 NSCLC): 31.3 µM | TGI (SF-268 CNS): 32.5 µM | TGI (HCT-116 colon): 31.4 µM | TGI (SF-539 CNS): 32.2 µM | TGI (MDA-N): 71.3 µM | TGI (A498 renal): 33.4 µM | TGI (COLO 205 colon): 73.7 µM | TGI (T-47D breast): 54.6 µM | TGI (HCT-15 colon): 49.9 µM | TGI (UO-31 renal): 44.4 µM | TGI (RXF 393 renal): 30.2 µM | TGI (OVCAR-8 ovarian): 32.1 µM | TGI (PC-3 prostate): 33.1 µM | TGI (UACC-62 melanoma): > 100 µM | TGI (KM12 colon): > 100 µM | TGI (MCF7 breast): > 100 µM | TGI (SN12C renal): 38.9 µM | TGI (SF-295 CNS): 33.6 µM

FC(F)(F)c1ccc2c(c1)nc(Cc1ccccc1)n2C[C@@H]1CCCN2CCCCC12 (stereo not given in full)
TGI (HS 578T breast): 57 µM | TGI (M14 melanoma): 23 µM | TGI (OVCAR-3 ovarian): 28 µM | TGI (NCI-H226 lung): 40.4 µM | TGI (NCI-H23 lung): 30.8 µM | TGI (RPMI-8226 leukemia): 82.7 µM | TGI (NCI/ADR-RES ovarian): 30.9 µM | TGI (ACHN renal): 26.5 µM | TGI (MDA-MB-231 breast): 27.8 µM | TGI (CCRF-CEM leukemia): > 54.8 µM | TGI (BT-549 breast): 28.7 µM | TGI (SK-MEL-2 melanoma): 30.6 µM | TGI (NCI-H460 lung): 31.9 µM | TGI (SK-MEL-5 melanoma): 29.6 µM | TGI (HL-60(TB) leukemia): 13.9 µM | TGI (SW-620 colon): > 65.7 µM | TGI (OVCAR-4 ovarian): 31.5 µM | TGI (SK-OV-3 ovarian): 31.3 µM | TGI (CAKI-1 renal): 31.1 µM | TGI (IGROV1 ovarian): 28.9 µM | TGI (HCC-2998 colon): 10.6 µM | TGI (HOP-92 NSCLC): 27.2 µM | TGI (MDA-MB-435): 30.4 µM | TGI (SK-MEL-28 melanoma): 32.3 µM | TGI (SNB-19 CNS): 28.6 µM | TGI (SNB-75 CNS): 29.9 µM | TGI (K-562 leukemia): > 64.8 µM | TGI (HT29 colon): 26.8 µM | TGI (NCI-H522 lung): 31.6 µM | TGI (U251 CNS): 29.2 µM | TGI (DU-145 prostate): 29.3 µM | TGI (EKVX NSCLC): 28.9 µM | TGI (LOX IMVI melanoma): 30.3 µM | TGI (SR leukemia): > 100 µM | TGI (A549 NSCLC): 28.8 µM | TGI (OVCAR-5 ovarian): 31.7 µM | TGI (786-0 renal): 28.6 µM | TGI (MOLT-4 leukemia): > 52.7 µM | TGI (TK-10 renal): 31.3 µM | TGI (MALME-3M melanoma): 31.1 µM | TGI (UACC-257 melanoma): 28.9 µM | TGI (HOP-62 NSCLC): 28.7 µM | TGI (SF-268 CNS): 31 µM | TGI (HCT-116 colon): 27.9 µM | TGI (SF-539 CNS): 35.6 µM | TGI (MDA-N): 26.2 µM | TGI (A498 renal): 29.1 µM | TGI (COLO 205 colon): 31.2 µM | TGI (T-47D breast): 30.4 µM | TGI (HCT-15 colon): 30.6 µM | TGI (UO-31 renal): 0.744 µM | TGI (RXF 393 renal): 23 µM | TGI (OVCAR-8 ovarian): 29.7 µM | TGI (PC-3 prostate): 28.5 µM | TGI (UACC-62 melanoma): 30.7 µM | TGI (KM12 colon): 30.3 µM | TGI (MCF7 breast): 28.6 µM | TGI (SN12C renal): 27 µM | TGI (SF-295 CNS): 29.6 µM
